Common to all, as to format: cell-based
Test [1] addresses BTK (Homo sapiens, UniProt Q06187). The test can be described thus: BTK degradation, DC50 and Dmax of Table 1 (cell line not given). On the set-up: endogenous in cells. Conditions: for DC50: concentration giving 50% reduction of BTK expression level.
For test [2], the system named is JeKo-1 cells. Put plainly: Antiproliferative effect, MTS cell viability assay, JeKo-1 cells. Conditions: Homo sapiens; JeKo-1 mantle cell lymphoma cells; read-out: IC50 (anti-proliferation) JeKO-1 cells. In a few lines:
(§1)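 Cells were exposed to compound at 0, 0.001, 0.01, 0.1, 1 and 10 μM for 72 h. Viability was then measured by MTS assay, reading formazan produced by metabolically active cells as absorbance at 490 nm.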
For orientation: Formazan colour is commonly taken as a measure of viable cells.

In test [3] the test system is Mino cells. Put plainly: Antiproliferative effect, MTS cell viability assay, Mino cells. The conditions noted are these: Homo sapiens, MINO, Mino mantle cell lymphoma cells; read-out: IC50 (anti-proliferation) Mino cells. In a few lines: as §1

Dmax, DC50 and IC50 data for 16 compounds are collected here from patent US12139492B2 (Endotarget Inc., priority 2021, dated 2024).

BTK, sequence (Q06187 whole entry): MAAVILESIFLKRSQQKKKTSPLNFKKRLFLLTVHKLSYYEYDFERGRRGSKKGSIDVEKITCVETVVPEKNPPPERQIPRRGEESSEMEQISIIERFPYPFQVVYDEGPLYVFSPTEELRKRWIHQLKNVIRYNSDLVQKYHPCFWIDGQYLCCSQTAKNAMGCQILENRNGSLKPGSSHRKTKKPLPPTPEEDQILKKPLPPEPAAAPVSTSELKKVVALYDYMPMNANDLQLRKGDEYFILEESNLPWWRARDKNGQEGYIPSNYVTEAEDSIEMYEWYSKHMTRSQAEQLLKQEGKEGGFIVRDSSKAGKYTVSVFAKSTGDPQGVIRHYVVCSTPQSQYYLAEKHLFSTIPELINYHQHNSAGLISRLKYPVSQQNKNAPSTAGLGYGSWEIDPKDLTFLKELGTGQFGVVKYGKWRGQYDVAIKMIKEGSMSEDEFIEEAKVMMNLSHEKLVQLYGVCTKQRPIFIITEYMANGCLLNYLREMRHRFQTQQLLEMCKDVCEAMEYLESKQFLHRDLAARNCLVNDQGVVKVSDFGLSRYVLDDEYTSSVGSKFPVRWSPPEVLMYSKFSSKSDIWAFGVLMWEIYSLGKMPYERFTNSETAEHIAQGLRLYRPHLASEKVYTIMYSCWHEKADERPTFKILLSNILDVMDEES

Usually Dmax stands for the largest share of the target that was removed. Low values mean shallow degradation, high ones deep degradation. What is called DC50 is the concentration giving 50% degradation. Consider `Nc1ncnc2c1c(-c1ccc(Oc3ccccc3)cc1)nn2[C@@H]1CCCN(C(=O)N2CCC(CCC3CCN(c4ccc5c(c4)C(=O)N(C4CCC(=O)NC4=O)C5=O)CC3)CC2)C1` (stereo partly drawn) [Compound 71, 5-(4-(2-(1-((R)-3-(4-amino-3-(4-phenoxyphenyl)-1H-pyrazolo[3,4-d]pyrimidin-1-yl)piperidine-1-carbonyl)piperidin-4-yl)ethyl)piperidin-1-yl)-2-(2,6-dioxopiperidin-3-yl)isoindoline-1,3-dione], for which the Dmax in test [1] is more than 90%. This compound also registered a DC50 in test [1] of less than 10 nM. Also, the IC50 in test [2] and in test [3] was 1000 to 10000 nM in each case.

Turning to `Nc1ncnc2c1c(-c1ccc(Oc3ccccc3)cc1)nn2[C@@H]1CCCN(C(=O)N2CCC(CCC3CCN(c4ccc5c(c4)CN(C4CCC(=O)NC4=O)C5=O)CC3)CC2)C1` (stereo partly drawn) [Compound 72, 3-(5-(4-(2-(1-((R)-3-(4-amino-3-(4-phenoxyphenyl)-1H-pyrazolo[3,4-d]pyrimidin-1-yl)piperidine-1-carbonyl)piperidin-4-yl)ethyl)piperidin-1-yl)-1-oxoisoindolin-2-yl)piperidine-2,6-dione], in test [1], the Dmax was more than 90% and the DC50 was less than 10 nM. Also, the IC50 in test [2] was in the range of 1000 to 10000 nM. For the same compound, the IC50 in test [3] fell in the range of 1000 to 10000 nM.

In test [1], `Nc1ncnc2c1c(-c1ccc(Oc3ccccc3)cc1)nn2[C@@H]1CCCN(C(=O)N2CCC(CCN3CCC(c4ccc5c(c4)C(=O)N(C4CCC(=O)NC4=O)C5=O)CC3)CC2)C1` (stereo partly drawn) [Compound 73, 5-(1-(2-(1-((R)-3-(4-amino-3-(4-phenoxyphenyl)-1H-pyrazolo[3,4-d]pyrimidin-1-yl)piperidine-1-carbonyl)piperidin-4-yl)ethyl)piperidin-4-yl)-2-(2,6-dioxopiperidin-3-yl)isoindoline-1,3-dione] came in with a Dmax of more than 90% and a DC50 of 10 to 50 nM. Moreover, in test [2], the IC50 is more than 10000 nM. Further, the IC50 in test [3] was in the range of 1000 to 10000 nM.

Turning to `Nc1ncnc2c1c(-c1ccc(Oc3ccccc3)cc1)nn2[C@@H]1CCCN(C(=O)N2CCC(CCN3CCC(c4ccc5c(c4)CN(C4CCC(=O)NC4=O)C5=O)CC3)CC2)C1` (stereo partly drawn) [Compound 74, 3-(5-(1-(2-(1-((R)-3-(4-amino-3-(4-phenoxyphenyl)-1H-pyrazolo[3,4-d]pyrimidin-1-yl)piperidine-1-carbonyl)piperidin-4-yl)ethyl)piperidin-4-yl)-1-oxoisoindolin-2-yl)piperidine-2,6-dione], in test [1], the Dmax is more than 90% and the DC50 was in the range of 10 to 50 nM. Also, the IC50 in test [2] was more than 10000 nM. The IC50 in test [3] was more than 10000 nM.

With `Nc1ncnc2c1c(-c1ccc(Oc3ccccc3)cc1)nn2C1CCN(C(=O)N2CCN(c3ccc4c(c3)CN(C3CCC(=O)NC3=O)C4=O)CC2)CC1` (stereo not shown) [Compound 76, 3-(5-(4-(4-(4-amino-3-(4-phenoxyphenyl)-1H-pyrazolo[3,4-d]pyrimidin-1-yl)piperidine-1-carbonyl)piperazin-1-yl)-1-oxoisoindolin-2-yl)piperidine-2,6-dione], the Dmax in test [1] was more than 50%. Besides, in test [1], the 50% degradation concentration (DC50) was more than 50 nM. The IC50 in test [2] and in test [3] was more than 10000 nM each time.

On to `Nc1ncnc2c1c(-c1ccc(Oc3ccccc3)cc1)nn2C1CCN(C(=O)N2CCC(c3ccc4c(c3)C(=O)N(C3CCC(=O)NC3=O)C4=O)CC2)CC1` (stereo not shown) [Compound 77, 5-(1-(4-(4-amino-3-(4-phenoxyphenyl)-1H-pyrazolo[3,4-d]pyrimidin-1-yl)piperidine-1-carbonyl)piperidin-4-yl)-2-(2,6-dioxopiperidin-3-yl)isoindoline-1,3-dione], for which, in test [1], the Dmax is more than 50% and the 50% degradation concentration (DC50) was more than 50 nM. In addition, the IC50 in test [2] is more than 10000 nM. Besides, in test [3], the IC50 is more than 10000 nM.

Consider `Nc1ncnc2c1c(-c1ccc(Oc3ccccc3)cc1)nn2C1CCN(C(=O)N2CCC(c3ccc4c(c3)CN(C3CCC(=O)NC3=O)C4=O)CC2)CC1` (stereo not shown) [Compound 78, 3-(5-(1-(4-(4-amino-3-(4-phenoxyphenyl)-1H-pyrazolo[3,4-d]pyrimidin-1-yl)piperidine-1-carbonyl)piperidin-4-yl)-1-oxoisoindolin-2-yl)piperidine-2,6-dione], for which, in test [1], the Dmax is more than 50% and the DC50 was more than 50 nM. Besides, the IC50 in test [2] was more than 10000 nM. In test [3], the IC50 was more than 10000 nM.

Regarding `Nc1ncnc2c1c(-c1ccc(Oc3ccccc3)cc1)nn2C1CCN(C(=O)N2CCC(N3CCN(c4ccc5c(c4)CN(C4CCC(=O)NC4=O)C5=O)CC3)CC2)CC1` (stereo not shown) [Compound 82, 3-(5-(4-(1-(4-(4-amino-3-(4-phenoxyphenyl)-1H-pyrazolo(3,4-d)pyrimidin-1-yl)piperidine-1-carbonyl)piperidin-4-yl)piperazin-1-yl)-1-oxoisoindolin-2-yl)piperidine-2,6-dione], in test [1], the Dmax is more than 75% and the DC50 lay in the range of 10 to 50 nM. Also, in test [2], the IC50 was more than 10000 nM. For the same compound, in test [3], the IC50 is more than 10000 nM.

In test [1], `Nc1ncnc2c1c(-c1ccc(Oc3ccccc3)cc1)nn2C1CCN(C(=O)N2CCC(N3CCC(c4ccc5c(c4)C(=O)N(C4CCC(=O)NC4=O)C5=O)CC3)CC2)CC1` (stereo not shown) [Compound 83, 5-(1′-(4-(4-amino-3-(4-phenoxyphenyl)-1H-pyrazolo[3,4-d]pyrimidin-1-yl)piperidine-1-carbonyl)-[1,4′-bipiperidin]-4-yl)-2-(2,6-dioxopiperidin-3-yl)isoindoline-1,3-dione] registered a maximal degradation (Dmax) of more than 75% and a DC50 of more than 50 nM. In test [2], the IC50 is more than 10000 nM. The IC50 in test [3] is more than 10000 nM.

As to `Nc1ncnc2c1c(-c1ccc(Oc3ccccc3)cc1)nn2C1CCN(C(=O)N2CCC(N3CCC(c4ccc5c(c4)CN(C4CCC(=O)NC4=O)C5=O)CC3)CC2)CC1` (stereo not shown) [Compound 84, 3-(5-(1′-(4-(4-amino-3-(4-phenoxyphenyl)-1H-pyrazolo[3,4-d]pyrimidin-1-yl)piperidine-1-carbonyl)-[1,4′-bipiperidin]-4-yl)-1-oxoisoindolin-2-yl)piperidine-2,6-dione], in test [1], the Dmax was more than 75% and the DC50 was more than 50 nM. The IC50 in test [2] is more than 10000 nM. For the same compound, the IC50 in test [3] is more than 10000 nM.

With `Nc1ncnc2c1c(-c1ccc(Oc3ccccc3)cc1)nn2C1CCN(C(=O)N2CCN(CC3CCN(c4ccc5c(c4)C(=O)N(C4CCC(=O)NC4=O)C5=O)CC3)CC2)CC1` (stereo not shown) [Compound 87, 5-(4-((4-(4-(4-amino-3-(4-phenoxyphenyl)-1H-pyrazolo[3,4-d]pyrimidin-1-yl)piperidine-1-carbonyl)piperazin-1-yl)methyl)piperidin-1-yl)-2-(2,6-dioxopiperidin-3-yl)isoindoline-1,3-dione], in test [1], the Dmax was more than 90% and the DC50 lay in the range of 10 to 50 nM. The IC50 in test [2] was less than 1000 nM. Further, the IC50 in test [3] lay within 1000 to 10000 nM.

With `Nc1ncnc2c1c(-c1ccc(Oc3ccccc3)cc1)nn2C1CCN(C(=O)N2CCN(CC3CCN(c4ccc5c(c4)CN(C4CCC(=O)NC4=O)C5=O)CC3)CC2)CC1` (stereo not shown) [Compound 88, 3-(5-(4-((4-(4-(4-amino-3-(4-phenoxyphenyl)-1H-pyrazolo[3,4-d]pyrimidin-1-yl)piperidine-1-carbonyl)piperazin-1-yl)methyl)piperidin-1-yl)-1-oxoisoindolin-2-yl)piperidine-2,6-dione], in test [1], the Dmax is more than 90% and the DC50 was 10 to 50 nM. Besides, the IC50 in test [2] is less than 1000 nM. In addition, in test [3], the IC50 was less than 1000 nM.

In test [1], `Nc1ncnc2c1c(-c1ccc(Oc3ccccc3)cc1)nn2C1CCN(C(=O)N2CCC(CC3CCN(c4ccc5c(c4)C(=O)N(C4CCC(=O)NC4=O)C5=O)CC3)CC2)CC1` (stereo not shown) [Compound 89, 5-(4-((1-(4-(4-amino-3-(4-phenoxyphenyl)-1H-pyrazolo[3,4-d]pyrimidin-1-yl)piperidine-1-carbonyl)piperidin-4-yl)methyl)piperidin-1-yl)-2-(2,6-dioxopiperidin-3-yl)isoindoline-1,3-dione] showed a Dmax of more than 90% and a DC50 of 10 to 50 nM. In addition, the IC50 in test [2] was 1000 to 10000 nM. Besides, the IC50 in test [3] was less than 1000 nM.

With `Nc1ncnc2c1c(-c1ccc(Oc3ccccc3)cc1)nn2C1CCN(C(=O)N2CCC(CC3CCN(c4ccc5c(c4)CN(C4CCC(=O)NC4=O)C5=O)CC3)CC2)CC1` (stereo not shown) [Compound 90, 3-(5-(4-((1-(4-(4-amino-3-(4-phenoxyphenyl)-1H-pyrazolo[3,4-d]pyrimidin-1-yl)piperidine-1-carbonyl)piperidin-4-yl)methyl)piperidin-1-yl)-1-oxoisoindolin-2-yl)piperidine-2,6-dione], the Dmax in test [1] was more than 90%. Besides, the DC50 in test [1] was less than 10 nM. In addition, the IC50 in test [2] and in test [3] was 1000 to 10000 nM each time.

`Nc1ncnc2c1c(-c1ccc(Oc3ccccc3)cc1)nn2C1CCN(C(=O)N2CCC(CN3CCC(c4ccc5c(c4)C(=O)N(C4CCC(=O)NC4=O)C5=O)CC3)CC2)CC1` (stereo not shown) [Compound 91, 5-(1-((1-(4-(4-amino-3-(4-phenoxyphenyl)-1H-pyrazolo[3,4-d]pyrimidin-1-yl)piperidine-1-carbonyl)piperidin-4-yl)methyl)piperidin-4-yl)-2-(2,6-dioxopiperidin-3-yl)isoindoline-1,3-dione]: the Dmax in test [1] was more than 90%. Besides, the DC50 in test [1] is less than 10 nM. The IC50 in test [2] and in test [3] was 1000 to 10000 nM throughout.

As to `Nc1ncnc2c1c(-c1ccc(Oc3ccccc3)cc1)nn2C1CCN(C(=O)N2CCC(CN3CCC(c4ccc5c(c4)CN(C4CCC(=O)NC4=O)C5=O)CC3)CC2)CC1` (stereo not shown) [Compound 92, 3-(5-(1-((1-(4-(4-amino-3-(4-phenoxyphenyl)-1H-pyrazolo[3,4-d]pyrimidin-1-yl)piperidine-1-carbonyl)piperidin-4-yl)methyl)piperidin-4-yl)-1-oxoisoindolin-2-yl)piperidine-2,6-dione], in test [1], the Dmax was more than 90% and the DC50 is less than 10 nM. For the same compound, the IC50 in test [2] lay in the range of 1000 to 10000 nM. The IC50 in test [3] is less than 1000 nM.
